This note sets out measurements from ChEMBL document CHEMBL4602624, “Discovery of a potent and selective adenylyl cyclase type 8 agonist by docking-based virtual screening” (Bioorg Med Chem Lett, 2020).

What all share (type): cell-based
For assay [1], the target named is Adenylate cyclase type 5 (Homo sapiens) (UniProt O95622). The experiment in a line: Agonist activity at recombinant human AC5 expressed in human HEK293 cells assessed as increase in cAMP level at 50 uM by LANCE Ultra cAMP Detection kit method.
For assay [2], the target named is Adenylate cyclase type 2 (Homo sapiens) (UniProt Q08462). Kind of assay: Agonist activity at recombinant human AC2 expressed in human HEK293 cells assessed as increase in cAMP level at 50 uM by LANCE Ultra cAMP Detection kit method. (Changes in cAMP serve as a functional read-out for many G protein-coupled receptors.)
In assay [3] the target is Adenylate cyclase type 1 (Homo sapiens) (UniProt Q08828). The experiment in a line: Agonist activity at recombinant human AC1 expressed in human HEK293 cells assessed as increase in cAMP level at 50 uM by LANCE Ultra cAMP Detection kit.
Assay [4] concerns the target T1, Adenylate cyclase type 8 (Homo sapiens, UniProt P40145). Kind of assay: Agonist activity at recombinant human AC8 expressed in human HEK293 cells assessed as fold increase in cAMP level by LANCE Ultra cAMP Detection kit method.
Assay [5] has as its target T1, Adenylate cyclase type 8. Kind of assay: Agonist activity at recombinant human AC8 expressed in human HEK293 cells assessed as fold increase in cAMP level at 50 uM by LANCE Ultra cAMP Detection kit method relative to control.

Calls of active or inactive are those of the source. The rule behind the calls is not given here.

T1 sequence (P40145 whole entry): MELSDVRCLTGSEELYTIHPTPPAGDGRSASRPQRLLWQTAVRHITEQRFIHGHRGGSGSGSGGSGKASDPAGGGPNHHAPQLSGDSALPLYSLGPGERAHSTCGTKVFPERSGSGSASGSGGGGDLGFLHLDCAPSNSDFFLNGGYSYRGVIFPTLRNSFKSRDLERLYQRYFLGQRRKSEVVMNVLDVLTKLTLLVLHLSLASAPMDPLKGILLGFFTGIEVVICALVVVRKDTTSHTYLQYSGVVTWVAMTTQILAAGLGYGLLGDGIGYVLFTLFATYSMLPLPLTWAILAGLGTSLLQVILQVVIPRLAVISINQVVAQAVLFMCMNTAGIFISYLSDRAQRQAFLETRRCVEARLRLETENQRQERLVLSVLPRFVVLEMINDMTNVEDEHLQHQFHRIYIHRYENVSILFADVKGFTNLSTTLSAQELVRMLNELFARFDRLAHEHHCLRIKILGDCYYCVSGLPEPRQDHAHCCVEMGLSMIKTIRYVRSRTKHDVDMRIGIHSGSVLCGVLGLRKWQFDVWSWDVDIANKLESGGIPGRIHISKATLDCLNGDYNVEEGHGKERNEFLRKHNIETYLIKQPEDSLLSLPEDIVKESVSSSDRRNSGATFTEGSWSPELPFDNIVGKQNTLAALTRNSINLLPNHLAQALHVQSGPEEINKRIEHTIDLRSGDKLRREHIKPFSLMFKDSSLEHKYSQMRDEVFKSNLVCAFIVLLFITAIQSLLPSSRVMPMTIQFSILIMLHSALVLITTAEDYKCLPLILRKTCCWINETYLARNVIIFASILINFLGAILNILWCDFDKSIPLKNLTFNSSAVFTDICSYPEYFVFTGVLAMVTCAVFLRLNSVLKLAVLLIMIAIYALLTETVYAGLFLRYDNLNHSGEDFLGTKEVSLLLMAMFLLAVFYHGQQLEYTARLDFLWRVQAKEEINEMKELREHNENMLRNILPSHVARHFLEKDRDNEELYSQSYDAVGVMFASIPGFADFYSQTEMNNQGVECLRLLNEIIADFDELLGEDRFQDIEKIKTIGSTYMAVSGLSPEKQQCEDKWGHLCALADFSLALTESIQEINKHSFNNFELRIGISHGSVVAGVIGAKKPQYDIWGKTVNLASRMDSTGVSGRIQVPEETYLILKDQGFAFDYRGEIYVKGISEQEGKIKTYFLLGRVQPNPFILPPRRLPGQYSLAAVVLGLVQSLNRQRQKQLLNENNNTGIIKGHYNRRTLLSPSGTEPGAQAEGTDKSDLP
Sequence of Adenylate cyclase type 1 (Homo sapiens) (Q08828 whole entry, looked up): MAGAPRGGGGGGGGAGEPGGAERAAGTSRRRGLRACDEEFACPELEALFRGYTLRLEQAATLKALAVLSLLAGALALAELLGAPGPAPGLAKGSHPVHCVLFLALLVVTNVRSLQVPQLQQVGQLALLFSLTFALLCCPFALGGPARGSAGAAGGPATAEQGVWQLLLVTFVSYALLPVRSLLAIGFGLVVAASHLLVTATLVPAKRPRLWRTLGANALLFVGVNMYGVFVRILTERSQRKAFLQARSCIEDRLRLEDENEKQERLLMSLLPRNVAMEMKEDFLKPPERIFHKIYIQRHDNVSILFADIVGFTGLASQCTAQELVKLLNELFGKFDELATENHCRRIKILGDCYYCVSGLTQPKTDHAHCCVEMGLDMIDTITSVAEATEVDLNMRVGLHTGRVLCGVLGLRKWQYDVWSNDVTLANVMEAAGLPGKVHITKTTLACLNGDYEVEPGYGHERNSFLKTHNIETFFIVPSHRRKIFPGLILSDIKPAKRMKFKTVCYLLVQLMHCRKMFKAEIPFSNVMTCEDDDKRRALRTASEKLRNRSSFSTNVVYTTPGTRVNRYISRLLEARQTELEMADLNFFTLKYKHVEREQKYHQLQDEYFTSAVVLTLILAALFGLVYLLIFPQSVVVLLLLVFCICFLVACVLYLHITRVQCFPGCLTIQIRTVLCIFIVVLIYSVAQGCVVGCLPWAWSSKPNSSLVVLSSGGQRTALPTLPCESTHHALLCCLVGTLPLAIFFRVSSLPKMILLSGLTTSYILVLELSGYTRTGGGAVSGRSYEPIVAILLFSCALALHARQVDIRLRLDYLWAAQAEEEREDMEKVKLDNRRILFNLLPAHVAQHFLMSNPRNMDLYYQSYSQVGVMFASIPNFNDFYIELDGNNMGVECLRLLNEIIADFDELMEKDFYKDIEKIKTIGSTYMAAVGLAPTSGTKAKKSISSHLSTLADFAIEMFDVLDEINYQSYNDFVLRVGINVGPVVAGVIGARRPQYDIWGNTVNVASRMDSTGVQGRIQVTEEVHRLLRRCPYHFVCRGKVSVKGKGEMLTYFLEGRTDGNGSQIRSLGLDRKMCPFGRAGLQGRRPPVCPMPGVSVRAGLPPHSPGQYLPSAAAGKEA
Sequence of Adenylate cyclase type 2 (Homo sapiens) (Q08462 whole entry): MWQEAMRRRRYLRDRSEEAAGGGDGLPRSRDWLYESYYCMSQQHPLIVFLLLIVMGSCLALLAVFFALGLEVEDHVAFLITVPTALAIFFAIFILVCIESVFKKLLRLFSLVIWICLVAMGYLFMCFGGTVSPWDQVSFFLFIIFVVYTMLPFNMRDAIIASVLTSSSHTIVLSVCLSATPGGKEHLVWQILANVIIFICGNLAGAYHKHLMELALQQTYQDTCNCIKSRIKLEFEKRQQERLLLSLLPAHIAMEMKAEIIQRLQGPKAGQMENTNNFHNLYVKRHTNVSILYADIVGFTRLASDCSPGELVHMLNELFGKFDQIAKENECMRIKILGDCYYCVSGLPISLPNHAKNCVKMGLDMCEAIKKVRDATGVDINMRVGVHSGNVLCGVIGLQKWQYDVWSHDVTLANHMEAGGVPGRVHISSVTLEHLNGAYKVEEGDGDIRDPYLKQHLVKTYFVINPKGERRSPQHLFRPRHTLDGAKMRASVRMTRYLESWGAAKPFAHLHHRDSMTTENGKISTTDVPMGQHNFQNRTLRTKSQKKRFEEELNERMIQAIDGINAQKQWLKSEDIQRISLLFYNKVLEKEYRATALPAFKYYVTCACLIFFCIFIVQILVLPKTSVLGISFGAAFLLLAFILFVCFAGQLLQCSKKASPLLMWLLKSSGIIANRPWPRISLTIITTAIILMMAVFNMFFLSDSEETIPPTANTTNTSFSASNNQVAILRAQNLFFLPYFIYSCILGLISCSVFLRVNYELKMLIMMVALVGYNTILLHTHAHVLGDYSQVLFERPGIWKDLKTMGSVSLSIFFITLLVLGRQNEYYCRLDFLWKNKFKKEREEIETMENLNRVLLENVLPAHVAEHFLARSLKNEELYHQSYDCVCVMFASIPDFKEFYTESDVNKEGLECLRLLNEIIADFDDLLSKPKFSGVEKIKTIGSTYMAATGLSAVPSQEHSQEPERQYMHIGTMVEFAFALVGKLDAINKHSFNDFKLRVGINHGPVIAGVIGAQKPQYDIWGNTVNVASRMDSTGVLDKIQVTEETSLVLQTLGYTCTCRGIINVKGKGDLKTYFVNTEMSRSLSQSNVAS
Sequence of Adenylate cyclase type 5 (Homo sapiens) (O95622 whole entry, looked up): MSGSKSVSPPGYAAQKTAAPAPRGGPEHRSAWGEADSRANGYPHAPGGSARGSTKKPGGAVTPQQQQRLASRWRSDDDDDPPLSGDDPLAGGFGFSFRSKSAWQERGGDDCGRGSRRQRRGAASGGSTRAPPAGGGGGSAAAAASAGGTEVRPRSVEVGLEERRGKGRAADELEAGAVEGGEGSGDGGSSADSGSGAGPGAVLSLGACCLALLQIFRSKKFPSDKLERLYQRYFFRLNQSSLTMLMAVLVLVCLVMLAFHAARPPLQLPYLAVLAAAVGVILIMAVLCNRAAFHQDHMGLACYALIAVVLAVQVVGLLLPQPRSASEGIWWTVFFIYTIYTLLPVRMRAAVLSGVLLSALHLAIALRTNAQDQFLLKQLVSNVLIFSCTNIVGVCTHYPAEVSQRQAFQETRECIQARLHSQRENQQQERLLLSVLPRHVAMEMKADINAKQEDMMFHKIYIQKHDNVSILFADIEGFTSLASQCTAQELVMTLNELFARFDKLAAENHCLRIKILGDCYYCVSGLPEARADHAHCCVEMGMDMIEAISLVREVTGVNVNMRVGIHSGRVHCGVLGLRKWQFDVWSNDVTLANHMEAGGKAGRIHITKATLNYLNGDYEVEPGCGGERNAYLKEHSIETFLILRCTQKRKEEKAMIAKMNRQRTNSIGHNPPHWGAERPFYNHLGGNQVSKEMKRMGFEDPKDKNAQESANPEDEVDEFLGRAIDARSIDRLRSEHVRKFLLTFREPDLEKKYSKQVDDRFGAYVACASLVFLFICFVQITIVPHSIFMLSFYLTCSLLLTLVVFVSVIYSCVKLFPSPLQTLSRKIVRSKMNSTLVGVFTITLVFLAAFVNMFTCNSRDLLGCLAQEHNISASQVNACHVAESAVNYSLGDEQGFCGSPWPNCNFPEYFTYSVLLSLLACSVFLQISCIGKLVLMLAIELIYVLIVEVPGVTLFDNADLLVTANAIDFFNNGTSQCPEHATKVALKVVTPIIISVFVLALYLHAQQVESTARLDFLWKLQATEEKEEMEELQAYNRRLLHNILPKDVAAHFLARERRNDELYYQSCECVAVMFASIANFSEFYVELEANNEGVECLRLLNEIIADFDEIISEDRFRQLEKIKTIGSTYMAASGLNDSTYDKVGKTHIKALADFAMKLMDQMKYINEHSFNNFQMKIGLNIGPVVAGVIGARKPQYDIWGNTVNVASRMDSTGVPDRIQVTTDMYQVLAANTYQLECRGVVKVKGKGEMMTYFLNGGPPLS

In general, EC50 refers to the concentration that produces a half-maximal response. With `CCOC(=O)C1(Cc2ccc(Cl)cc2Cl)C(=O)Nc2ccccc21` (stereo not drawn), the result in assay [1], in assay [2] and in assay [3] was inactive. For the same molecule, the Activity result on Adenylate cyclase type 8 [4] was “Dose-dependent effect”. Further, the half-maximal effective concentration (EC50) on Adenylate cyclase type 8 [4] was 105 nM. For the same molecule, the fold change (FC) on Adenylate cyclase type 8 [5] is 33.

As to `C=C[C@@]1(C)CC(=O)[C@]2(O)[C@@]3(C)[C@@H](O)CCC(C)(C)[C@@H]3[C@H](O)[C@H](OC(C)=O)[C@@]2(C)O1` [COLFORSIN], at Adenylate cyclase type 8 [4], the EC50 was 93.7 nM. The fold change (FC) at Adenylate cyclase type 8 [5] came out at 35.
